This passage reports melting point, IC50 and inhibition results from patent publication US6699864B2, “Substituted phenyl-piperazine derivatives, their preparation and use” (H. Lundbeck A/S, priority 1999, dated 2004).

Data set [1] deals with T1, human 5-HT1A receptors (Homo sapiens, UniProt P08908).
T1 construct: expressed in transfected cells; host or cells: HeLa cells (HA7)
T1 sequence (P08908 1-422): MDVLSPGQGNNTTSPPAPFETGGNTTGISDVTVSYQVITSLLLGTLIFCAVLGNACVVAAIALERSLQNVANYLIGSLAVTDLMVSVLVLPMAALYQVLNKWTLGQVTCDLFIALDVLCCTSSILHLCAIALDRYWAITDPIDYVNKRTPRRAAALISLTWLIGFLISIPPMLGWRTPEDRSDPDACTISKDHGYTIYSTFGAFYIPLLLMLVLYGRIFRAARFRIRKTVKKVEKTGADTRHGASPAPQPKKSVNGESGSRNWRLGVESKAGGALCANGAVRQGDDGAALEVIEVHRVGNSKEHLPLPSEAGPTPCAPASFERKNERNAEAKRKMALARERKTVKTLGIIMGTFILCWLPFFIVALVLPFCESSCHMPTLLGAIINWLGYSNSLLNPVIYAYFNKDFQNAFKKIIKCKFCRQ
The data set is described as follows: Inhibition of 3H-5-CT binding to human 5-HT1A receptors. To be noted: cloned human 5-HT1A receptors expressed in HeLa cells (HA7); 15 minutes at 37° C., pH 7.7. Here is the method:
The affinity of the compounds of the invention to 5-HT1A receptors was determined by measuring the inhibition of binding of a radioactive ligand at 5-HT1A receptors as described in the following test:
Inhibition of ^3H-5-CT Binding to Human 5-HT1A Receptors.
By this method, the inhibition by drugs of the binding of the 5-HT1A agonist ^3H-5-carboxamido tryptamine (^3H-5-CT) to cloned human 5-HT1A receptors stably expressed in transfected HeLa cells (HA7) (Fargin, A. et al, J. Biol. Chem., 1989, 264, 14848) is determined in vitro. The assay was performed as a modification of the method described by Harrington, M. A. et al, J. Pharmacol. Exp. Ther., 1994, 268, 1098. Human 5-HT1A receptors (40 μg of cell homogenate) were incubated for 15 minutes at 37° C. in 50 mM Tris buffer at pH 7.7 in the presence of ^3H-5-CT. Non-specific binding was determined by including 10 μM of metergoline. The reaction was terminated by rapid filtration through Unifilter GF/B filters on a Tomtec Cell Harvester. Filters were counted in a Packard Top Counter.

Data set [2] addresses T2, 3H-5-HT uptake into whole rat brain synaptosomes (serotonin reuptake) (Rattus norvegicus, UniProt P31652).
T2 construct: whole rat brain synaptosomes; from tissue; host or cells: whole rat brain synaptosomes
Put plainly: Inhibition of 3H-5-HT uptake into rat brain synaptosomes. To be noted: for IC50: in vitro; for inhibition at 0.1 µM: at 100 nM. The data set is classed as biochemical. Here is the method:
Inhibition of ^3H-5-HT Uptake Into Rat Brain Synaptosomes
Using this method, the ability of drugs to inhibit the accumulation of ^3H-5-HT into whole rat brain synaptosomes is determined in vitro. The assay was performed as described by Hyttel, J., Psychopharmacology 1978, 60, 13.

Broadly, the melting point is the temperature, or range, at which the solid turns liquid. The IC50 is the concentration that gives 50% inhibition. The term inhibition denotes the share of the control response that was lost under treatment. High values mean a response far below the control, low ones a response near the control.

Structures can show the parent of a compound that is named as a salt.

T2 sequence (P31652 whole entry): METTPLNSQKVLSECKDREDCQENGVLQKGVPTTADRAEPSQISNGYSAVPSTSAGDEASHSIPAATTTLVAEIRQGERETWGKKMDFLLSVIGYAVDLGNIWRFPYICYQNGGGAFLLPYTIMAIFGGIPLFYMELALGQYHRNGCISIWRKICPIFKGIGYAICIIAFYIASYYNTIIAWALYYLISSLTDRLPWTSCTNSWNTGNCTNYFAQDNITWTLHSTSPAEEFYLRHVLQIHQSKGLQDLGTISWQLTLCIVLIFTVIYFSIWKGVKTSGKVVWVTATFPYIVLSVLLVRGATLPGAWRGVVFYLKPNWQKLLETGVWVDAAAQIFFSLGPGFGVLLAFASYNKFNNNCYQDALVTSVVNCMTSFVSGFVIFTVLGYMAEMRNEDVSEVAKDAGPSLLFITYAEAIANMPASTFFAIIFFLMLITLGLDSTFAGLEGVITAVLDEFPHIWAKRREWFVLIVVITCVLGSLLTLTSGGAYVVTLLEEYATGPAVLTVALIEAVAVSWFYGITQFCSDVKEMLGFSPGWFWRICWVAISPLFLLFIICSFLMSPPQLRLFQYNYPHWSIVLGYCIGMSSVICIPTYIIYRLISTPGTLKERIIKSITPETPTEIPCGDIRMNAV

As for `Clc1ccc2c(CCCN3CCN(c4ccccc4Oc4ccc5c(c4)OCO5)CC3)c[nH]c2c1` (as salt: hydrochloride) [Compound 2c, 1-[2-(1,3-Benzodioxolan-5-Yloxy)Phenyl]-4-[3-(6-Chloro-1H-Indol-3-Yl)Propyl]Piperazine], the melting point is 165 °C (dec.).

For `COc1ccccc1Oc1ccccc1N1CCN(CCCc2c[nH]c3ccc(F)cc23)CC1` (as salt: hydrochloride) [Compound 2d, 1-[2-(2-Methoxyphenoxy)Phenyl]-4-[3-(5-Fluoro-1H-Indol-3-Yl)Propyl]Piperazine], the melting point is 183 to 189 °C.

As to `c1ccc(N2CCN(CCc3c[nH]c4ccccc34)CC2)c(Oc2ccc3c(c2)OCO3)c1` (as salt: oxalate) [Compound 1b, 1-[2-(1,3-Benzodioxolan-5-yloxy)phenyl]-4-[2-(1H-indol-3-yl)ethyl]piperazine], the melting point lay within 221 to 228 °C.

As for `c1ccc(N2CCN(CCCc3c[nH]c4ccccc34)CC2)c(Oc2ccc3c(c2)OCO3)c1` (as salt: oxalate) [Compound 2b, 1-[2-(1,3-Benzodioxolan-5-Yloxy)Phenyl]-4-[3-(1H-Indol-3-Yl)Propyl]Piperazine], the melting point fell in the range of 156 to 162 °C.

With `c1ccc(N2CCN(CCc3c[nH]c4ccccc34)CC2)c(Oc2ccc3c(c2)OCO3)c1` [Compound 1b, 1-[2-(1,3-Benzodioxolan-5-yloxy)phenyl]-4-[2-(1H-indol-3-yl)ethyl]piperazine], the half-maximal inhibitory concentration (IC50) in data set [1] was determined as 7.8 nM; in data set [2] it was 130 nM.

Turning to `c1ccc(N2CCN(CCCc3c[nH]c4ccccc34)CC2)c(Oc2ccc3c(c2)OCO3)c1` [Compound 2b, 1-[2-(1,3-Benzodioxolan-5-Yloxy)Phenyl]-4-[3-(1H-Indol-3-Yl)Propyl]Piperazine], the IC50 in data set [1] came to 16 nM; in data set [2], 2.8 nM.

`c1ccc(N2CCN(CCCCc3c[nH]c4ccccc34)CC2)c(Oc2ccc3c(c2)OCO3)c1` [Compound 3c]: the half-maximal inhibitory concentration (IC50) in data set [1] is 16 nM. In data set [2], this compound returned an inhibition at 0.1 µM of 27%.

In turn, `Clc1ccc2c(CCN3CCN(c4ccccc4Oc4ccc5c(c4)OCO5)CC3)c[nH]c2c1` [Compound 3e, 1-[2-(1,3-Benzodioxolan-5-yloxy)phenyl]-4-[2-(6-chloro-1H-indol-3-yl)ethyl]piperazine] gave a half-maximal inhibitory concentration (IC50) in data set [1] of 24 nM. Further, at 0.1 µM the inhibition in data set [2] was 40%.

Consider `Fc1ccc2[nH]cc(CCCN3CCN(c4ccccc4Oc4cccc5c4OCCO5)CC3)c2c1` [Compound 5a, 1-[2-(1,4-Benzodioxan-5-Yloxy)Phenyl]-4-[3-(5-Fluoro-1H-Indol-3-Yl)Propyl]Piperazine], for which the half-inhibitory concentration (IC50) came out at 19 nM in data set [1] and 14 nM in data set [2].

`c1ccc(N2CCN(CCCc3c[nH]c4ccccc34)CC2)c(Oc2cccc3c2OCCO3)c1` [Compound 5ae, 1-[2-(1,4-Benzodioxan-5-yloxy)phenyl]-4-[3-(1H-indol-3-yl)propyl]piperazine]: in data set [1], the IC50 worked out at 26 nM. The compound also returned an inhibition at 0.1 µM in data set [2] of 42%.

As for `Fc1ccc2[nH]cc(CCCN3CCN(c4ccccc4Oc4cccc(N5CCOCC5)c4)CC3)c2c1` [Compound 5ag, 1-{2-[3-(Morpholin-4-yl)phenoxy]phenyl}-4-[3-(5-fluoro-1H-indol-3-yl)propyl]piperazine], the IC50 in data set [1] was determined as 26 nM; in data set [2], 23 nM.

Take `CCOc1cccc(Oc2ccccc2N2CCN(CCCc3c[nH]c4ccc(C)cc34)CC2)c1` [Compound 5ai, 1-[2-(3-Ethoxyphenoxy)phenyl]-4-[3-(5-methyl-1H-indol-3-yl)propyl]piperazine]: the IC50 in data set [1] turned out to be 28 nM. In data set [2], this compound showed an inhibition at 0.1 µM of 34%.

Consider `c1ccc(Oc2ccccc2N2CCN(CCCc3c[nH]c4ccccc34)CC2)cc1` [Compound 5e, 1-(2-Phenoxyphenyl)-4-[3-(1H-indol-3-yl)propyl]piperazine], for which the figures for the IC50 in data set [1] and in data set [2] were 10 nM and 13 nM, respectively.

On to `Fc1ccc2[nH]cc(CCCN3CCN(c4ccccc4Oc4ccccc4)CC3)c2c1` [Compound 5f, 1-(2-Phenoxyphenyl)-4-[3-(5-fluoro-1H-indol-3-yl)propyl]piperazine], for which the IC50 in data set [1] was 10 nM; in data set [2], 4.8 nM.

In turn, `COc1cccc(OC)c1Oc1ccccc1N1CCN(CCCc2c[nH]c3ccc(Br)cc23)CC1` [Compound 5h, 1-[2-(2,6-Dimethoxyphenoxy)phenyl]-4-[3-(5-bromo-1H-indol-3-yl)propyl]piperazine] displayed a concentration for half-maximal inhibition (IC50) in data set [1] of 10 nM. The compound further yielded an inhibition at 0.1 µM in data set [2] of 55%.

In the case of `Cc1ccc2[nH]cc(CCCN3CCN(c4ccccc4Oc4cccc(N(C)C)c4)CC3)c2c1` [Compound 5i, 1-(2-[3-(Dimethylamino)phenoxy]phenyl]-4-[3-(5-methyl-1H-indol-3-yl)propyl]piperazine], the IC50 in data set [1] worked out at 10 nM. Moreover, at 0.1 µM the inhibition in data set [2] was 46%.

As to `COc1ccccc1Oc1ccccc1N1CCN(CCCc2c[nH]c3ccc(F)cc23)CC1` [Compound 5l, 1-[2-(2-Methoxyphenoxy)phenyl]-4-[3-(5-fluoro-1H-indol-3-yl)propyl]piperazine], the IC50 in data set [1] was determined as 13 nM; in data set [2], 4.7 nM.

On to `COc1ccccc1Oc1ccccc1N1CCN(CCCc2c[nH]c3c(F)cc(F)cc23)CC1` [Compound 5x, 1-[2-(2-Methoxyphenoxy)phenyl]-4-[3-(5,7-difluoro-1H-indol-3-yl)propyl]piperazine], for which the values for the half-maximal inhibitory concentration (IC50) in data set [1] and in data set [2] were 18 nM and 33 nM, respectively.
